# From US7884195B2, “Method of extracting ginsengnoside Rg2m, pharmaceutical composition including ginsengnoside Rg2, and uses thereof” (priority 2005, dated 2011)
# Marks after values point to notes of the source that are not given here.
# Tests used:
# [1] = tested on: Alzheimer Dementia (AD) model rats injected with beta-amyloid (Aβ1-40) and Ibotenic acid (IBA); assay: Y-shaped electronic maze test of learning-memory ability, beta-amyloid (Aβ1-40) dementia model; format: in vivo, rat; design: key: number of stimuli needed for 9-10 successive correct responses; settings: nimodipine 0.05 mg·kg^−1 i.v., once a day, 7 days
# Experimental: (§1) This experiment was carried out employing an Alzheimer Dementia (AD) model. 70 rats were divided into 7 groups consisting of 10 rats each and were anesthetized with chloral hydrate. Except for a placebo group, the remaining 6 groups were rendered dementia models by injecting 4 μg of beta-amyloid (Aβ1-40) and 1 μg of Ibotenic acid (IBA) into the hippocampus CA1 region of each rat. The placebo group was infused with an equal amount of physiological saline, instead of beta-amyloid and Ibotenic acid (IBA).
# (§2) The above-mentioned dementia model groups were subdivided into a control group to which physiological saline was administered, four experimental groups to which ginsenoside Rg2 was administered and a comparative group to which a medical dementia therapeutic agent, nimodipine was administered. Each group received the corresponding respective reagents via intravenous injection for 7 days, once a day, according to the dosages set forth in Table 7 below. […]
# On day 6 of respective reagent administration, animals were subjected to a Y-shaped electronic maze test. Learning-memory ability of rats was determined according to the following method. […] After 24 hours, the stimulus times necessary for 9 to 10-time successive and exact response of rats were recorded again as the order of memory. […]
# [2] = tested on: hippocampus CA1 nerve cell bodies; assay: Niss1 staining, loss of nerve cell bodies, Aβ1-40 dementia model; format: in vivo, rat; settings: nimodipine 0.05 mg·kg^−1 i.v., once a day, 7 days
# Experimental: as §1
# as §2, with “below. Herein, reagents, which are administered to experimental groups, are isomeric C-20(S) ginsenoside Rg2 and C-20(R) ginsenoside Rg2, and mixed-type C-20(SR) ginsenoside Rg2 (in the following Tables, referred to as S, R and SR, respectively).” for “below.”
# hippocampus nerve cells = assay: TUNEL staining, in situ cell death (apoptosis), Aβ1-40 dementia model; format: in vivo, rat; settings: nimodipine 0.05 mg·kg^−1 i.v., once a day, 7 days
# Experimental: as §1
# as §2, with “below. Herein, reagents, which are administered to experimental groups, are isomeric C-20(S) ginsenoside Rg2 and C-20(R) ginsenoside Rg2, and mixed-type C-20(SR) ginsenoside Rg2 (in the following Tables, referred to as S, R and SR, respectively).” for “below.”
# Bax [3] = assay: Expression of Bax in hippocampus, Aβ1-40 dementia model; format: in vivo, rat; settings: nimodipine 0.05 mg·kg^−1 i.v., 7 days; 10 rats per group
# Experimental: as §1
# (§3) The above-mentioned dementia model groups were subdivided into a control group to which physiological saline was administered, four experimental groups to which ginsenoside Rg2 was administered and a comparative group to which a medical dementia therapeutic agent, nimodipine was administered. Each group received the corresponding respective reagents via intravenous injection for 7 days, once a day, according to the dosages set forth in Table 7 below. Herein, reagents, which are administered to experimental groups, are isomeric C-20(S) ginsenoside Rg2 and C-20(R) ginsenoside Rg2, and mixed-type C-20(SR) ginsenoside Rg2 (in the following Tables, referred to as S, R and SR, respectively).
# (§4) In addition, 24 hours after examination of learning-memory ability, the front and rear of the injected site of the hippocampus CA1 region were successively sliced and subjected to Niss1 staining, HE staining, and chemical examination of immune tissues and in situ cell death, thereby observing morphological changes of hippocampus neuron cell zones, necrosis, degree of cell loss, rate of cell death, and degree of expression of Bax/Bcl-2 and C-fos genes.
# Bcl-2 = assay: Expression of Bcl-2 in hippocampus, Aβ1-40 dementia model; format: in vivo, rat; settings: nimodipine 0.05 mg·kg^−1 i.v., 7 days; 10 rats per group
# Experimental: as §1, §3, §4
# C-fos = assay: Expression of C-fos in hippocampus, Aβ1-40 dementia model; format: in vivo, rat; settings: nimodipine 0.05 mg·kg^−1 i.v., 7 days; 10 rats per group
# Experimental: as §1, §3, §4
# [4] = tested on: multiple infarct dementia (MID) model rats; assay: Y-shaped electronic maze test of learning-memory ability, multiple infarct dementia (MID) model; format: in vivo, rat; design: key: stimuli needed for 9-10 successive correct responses (memory: 24 h later); settings: nimodipine 0.05 mg·kg^−1 i.v., once a day, 7 days
# Experimental: On day 6 of respective reagent administration, animals were subjected to a Y-shaped electronic maze test. Learning-memory ability of rats was determined according to the following method. Firstly, the order of learning is taken as the number of stimulus times necessary for 9 to 10-time successive and exact response of rats. After 24 hours, the stimulus times necessary for 9 to 10-time successive and exact response of rats were recorded again as the order of memory. Based on the recordings thus obtained, a t-test was made between respective groups.
# This experiment was carried out employing a multiple infarct dementia (MID) model. 56 rats were divided into 7 groups consisting of 8 rats each and were anesthetized with 10% chloral hydrate. Except for a placebo group, the remaining 6 groups were established as dementia models by injecting 0.13 ml/100 g of a composite thrombosis-inducing agent into the carotid artery of each rat, restoring anatomical structures thereof and suturing skins along layers. The placebo group was injected with an equal amount of physiological saline, instead of the composite thrombosis-inducing agent. […]
# On day 6 of respective reagent administration, learning-memory ability of animals was determined according to the same manner as in Experimental Example 1.
# glutamate (Glu) = assay: Glu-positive neurons in CPU region, MID model; format: in vivo, rat; settings: nimodipine 0.05 mg·kg^−1 i.v., once a day, 7 days
# Experimental: (§5) This experiment was carried out employing a multiple infarct dementia (MID) model. 56 rats were divided into 7 groups consisting of 8 rats each and were anesthetized with 10% chloral hydrate. Except for a placebo group, the remaining 6 groups were established as dementia models by injecting 0.13 ml/100 g of a composite thrombosis-inducing agent into the carotid artery of each rat, restoring anatomical structures thereof and suturing skins along layers. The placebo group was injected with an equal amount of physiological saline, instead of the composite thrombosis-inducing agent.
# as §3, with “The above” for “The above-mentioned”, “to” for “to the”, “Table 12” for “Table 7”, “following experiments,” for “following Tables,”, “respectively). […]” for “respectively).”
# Bax [5] = assay: Bax-positive neurons in CPU region, MID model; format: in vivo, rat; settings: nimodipine 0.05 mg·kg^−1 i.v., once a day, 7 days
# Experimental: as §5
# as §3, with “The above” for “The above-mentioned”, “to” for “to the”, “Table 12” for “Table 7”, “following experiments,” for “following Tables,”, “respectively). […]” for “respectively).”
# Caspase-3 = assay: Caspase-3-positive neurons in CPU region, MID model; format: in vivo, rat; settings: nimodipine 0.05 mg·kg^−1 i.v., once a day, 7 days
# Experimental: as §5
# as §3, with “The above” for “The above-mentioned”, “to” for “to the”, “Table 12” for “Table 7”, “following experiments,” for “following Tables,”, “respectively). […]” for “respectively).”
# Calpain II = assay: Calpain II-positive neurons in CPU region, MID model; format: in vivo, rat; settings: nimodipine 0.05 mg·kg^−1 i.v., once a day, 7 days
# Experimental: as §5
# as §3, with “The above” for “The above-mentioned”, “to” for “to the”, “Table 12” for “Table 7”, “following experiments,” for “following Tables,”, “respectively). […]” for “respectively).”
# PC12 cells = assay: MTT metabolism after glutamic acid damage of PC12 cells; format: cell-based; settings: nimodipine 5 pmol; 1 mmol/L glutamic acid, 20 hours; OD at 490 nm
# Experimental: 100 μl/well of PC12 culture having a cell density of 10^5 cells/mL was inoculated into a 96-well plate and PC12 cells were allowed to adhere to walls of the plate. Wells were divided into 6 groups to which 6 wells were assigned each.
# A serum-free medium was added to a non-treatment group, 1 mmol/L of a serum-free medium containing glutamic acid and an equal volume (1 mmol/L) of 20% 1,2-polyethylene glycol were added to a control group, 1 mmol/L of a serum-free medium containing glutamic acid and 0.1 mmol/L of respective structures of ginsenoside Rg2 were added to experimental groups, and 5 pmol of nimodipine, instead of ginsenoside Rg2, was added to a comparative group. Then, PC12 cells of respective groups were cultured at 37° C. for 20 hours.
# 20 μl/well of MTT (5 g/L) was added to respective groups and cells were continuously cultured at 37° C. for 4 hours. Then, the original medium was aspirated, and 0.1 ml/well of dimethyl sulfoxide (DMSO) was added to dissolve red granules. Next, optical density (OD) at 490 nm was measured using an enzyme-linked immuno-assay and then a t-test was made between groups.
structure (smiles),measurement,setting,value
"COCCOC(=O)C1=C(C)NC(C)=C(C(=O)OC(C)C)C1c1cccc([N+](=O)[O-])c1 (centres unmarked) [Nimodipine, nimodipine, reference compound]",Order of Memory,[1]; 24 hours after learning,4.10 ± 4.80
same,Order of Learning,[1]; test on day 6,8.60 ± 4.58
same,Length of nerve cell body loss,[2],259.14 ± 60.36 μm
same,Rate of nerve cell death,hippocampus nerve cells,19.83 ± 2.93
same,"Expression Intensity of bax, count at grade +",Bax [3],7
same,"Expression Intensity of bax, count at grade ++",Bax [3],3
same,"Expression Intensity of bax, count at grade +++",Bax [3],0**
same,"Expression Intensity of bax, count at grade −",Bax [3],0
same,"Expression Intensity of bcl-2, count at grade +",Bcl-2,5
same,"Expression Intensity of bcl-2, count at grade ++",Bcl-2,4
same,"Expression Intensity of bcl-2, count at grade +++",Bcl-2,1**
same,"Expression Intensity of bcl-2, count at grade −",Bcl-2,0
same,"Expression Intensity of C-fos, count at grade +",C-fos,3
same,"Expression Intensity of C-fos, count at grade ++",C-fos,4
same,"Expression Intensity of C-fos, count at grade +++",C-fos,3*
same,"Expression Intensity of C-fos, count at grade −",C-fos,0
same,Order of Memory,[4],0.0 ± 0.0
same,Order of Learning,[4]; test on day 6,2.5 ± 3.70
same,Number of Glu-positive cells,glutamate (Glu),11.8 ± 3.89
same,Number of Bax-positive cells,Bax [5],3.2 ± 2.47
same,Number of Caspase-3 positive cells,Caspase-3,2.3 ± 2.72
same,Number of Calpain II-positive cells,Calpain II,3.9 ± 0.67
same,MTT (OD),PC12 cells,0.086 ± 0.017
